Data: PubChem BioAssay AID602464 (Sanford-Burnham Center for Chemical Genomics, 2012)
Active and inactive are the calls of the source. No stated cut-off is given here; in the data, active means IC50 below about 20 µM; inactive means the rest.

system: Gli-responsive luciferase reporter cells, SUFU pathway antagonism; experiment: blockers of Gli reporter signaling – cell-based, luciferase luminescence, uHTS hits, dose response (AID 602464)

O=C(c1ccc(C(F)(F)F)cc1)C1CCCN(Cc2ccncc2)C1 (stereo not drawn) and CC1CCCCC1NS(=O)(=O)c1ccc(S(=O)(=O)NCc2ccncc2)cc1 (stereo not drawn) are within 1.5-fold of each other in IC50: 5.26 µM for the first, 5.58 µM for the second.

CC(=O)Nc1cccc(OCC(=O)/C=C2\N(C)c3ccccc3C2(C)C)c1 and CC(C)C(=O)NC(=S)/C=C1/N(C)c2ccccc2C1(C)C are within 1.5-fold of each other in IC50: 4.73 µM for the first, 4.76 µM for the second.

C#CC[N+](C)(C)CCCCCCCCCCCC and CC(C)(C)OC(=O)NCCCCCc1cn(CC(=O)NCCCCCCCCCCC(=O)N2CCN(C(=O)OC(C)(C)C)CC2)nn1 are within 1.5-fold of each other in IC50: 2.51 µM for the first, 2.93 µM for the second.

Cc1ccc(S(=O)(=O)N2CCN(C(=O)C3CCN(c4ncnc5sc(C)c(C)c45)CC3)CC2)c(C)c1 and Cc1sc2ncnc(N3CCN(S(=O)(=O)c4ccc(C(C)(C)C)cc4)CC3)c2c1C are within 1.5-fold of each other in IC50: 7.57 µM for the first, 5.43 µM for the second.

Going from CCN(CC)S(=O)(=O)c1ccc(S(=O)(=O)Nc2c(C)nn(C)c2C)cc1 to CCN(CC)S(=O)(=O)c1ccc(C)c(NC(=S)N2CCN(Cc3ccc4c(c3)OCO4)CC2)c1, the IC50 rises from 6.15 µM to 12.2 µM (2-fold). The first is the more potent here.

Going from Cc1ccsc1CNc1ncnc2ccc(-c3c(C)noc3C)cc12 to c1ccc2c(c1)OCC(CNc1ncnc3sccc13)O2 (stereo not drawn), the IC50 falls from 4.5 µM to 0.887 µM (5.1-fold).

COCCn1c(CN2CCC(Cc3ccccc3)CC2)nc2c1c(=O)n(C)c(=O)n2C and NC(=O)c1ccccc1OCC(=O)N1CCC(Cc2ccccc2)CC1 are within 1.5-fold of each other in IC50: 4.08 µM for the first, 5.61 µM for the second.

CCCC(C)C(=O)Nc1nc(C)c(-c2csc(Nc3ccc(Cl)cc3)n2)s1 (stereo not drawn) and Cc1nn(C)c(C)c1/C=C/C(=O)c1ccc(Cl)cc1Cl are within 1.5-fold of each other in IC50: 6.48 µM for the first, 7.53 µM for the second.

Compared with COc1ccc(-c2noc(CCCCC(=O)N3CCN(c4cc(C)ccc4C)CC3)n2)cc1, COc1ccc(CN2CCC(C(=O)Nc3ccc(Oc4cccnc4)cc3)CC2)c(C)c1C is 3.1-fold higher in IC50: 4 µM for the first, 12.6 µM for the second.

First: CC(=O)N1c2ccc(S(=O)(=O)N3CCC(C(=O)N4CCCCC4)CC3)cc2CC1C (stereo not drawn)
Second: COc1ccc(NS(=O)(=O)c2cccc(NC(=O)c3ccc(S(=O)(=O)N4CCCCCC4)cc3)c2)cc1
The IC50 of the first is 2.3-fold higher: 16.9 µM for the first, 7.51 µM for the second.

CC(C)C[C@H]1CN=C(N(C)C)N1CCCCc1ccccc1 and CCC(C)CCN1C(N(C)C)=NC[C@@H]1CC(C)C (stereo partly drawn) are within 1.5-fold of each other in IC50: 7.93 µM for the first, 7.98 µM for the second.

Going from COc1cc(C(=O)NC2CCN(C)CC2)ccc1Nc1ncc2c(n1)N(Cc1ccccc1)CCC(=O)N2C to CC1CCN(c2c(NCc3ccc(C(=O)N4c5ccccc5CC4C)cc3)c(=O)c2=O)CC1 (stereo not drawn), the IC50 rises from 1.28 µM to 5.18 µM (4-fold). The first is the more potent here.

Going from Nc1ccc(Br)cc1-c1nc2ccccc2[nH]c1=O to COc1ccc(CNc2ncnc3c2[nH]c2ccccc23)cc1, the IC50 rises from 0.771 µM to 2.79 µM (3.6-fold). The first is the more potent here.

Going from CCn1c(=NC(=O)CCS(=O)(=O)c2ccccc2)sc2cccc(OC)c21 to CCCCCn1c(=N)n(CC(O)COc2ccccc2OC)c2ccccc21 (stereo not drawn), the IC50 rises from 3.11 µM to 8.43 µM (2.7-fold). The first is the more potent here.

Cc1nc2ccccc2c2c1CC(C(C)(Cl)Br)O2 (stereo not drawn) and Cc1nc2ccccc2n1CC(=O)NC(C)C1CC2CCC1C2 (stereo not drawn) are within 1.5-fold of each other in IC50: 5.82 µM for the first, 7.93 µM for the second.

Compared with COc1ccccc1-n1c(-c2ccccc2)c[n+]2c1CCc1ccccc1-2, COc1ccccc1N1CCN(c2ncc(C(=O)N3CCN(c4cccc(Cl)c4)CC3)c3ccccc23)CC1 is 1.7-fold higher in IC50: 3.63 µM for the first, 6.18 µM for the second. The first is the more potent here.

Going from COc1ccc(-n2cc(-c3ccc(OC(F)F)cc3)[n+]3c2CCCCC3)cc1 to Clc1ccc(-c2cn(-c3ccccc3)c3[n+]2CCS3)cc1, the IC50 rises from 2.29 µM to 16.9 µM (7.4-fold). The first is the more potent here.

CCOC(=O)N1CCN(C(=O)c2ccc(CSc3ccc(Cl)cc3)cc2)CC1 and O=C(NCCc1cccc(Cl)c1)c1ccc(OC2CCN(Cc3ccccn3)CC2)cc1 are within 1.5-fold of each other in IC50: 10.8 µM for the first, 7.72 µM for the second.

Going from CC(=O)Nc1ccc(S(=O)(=O)N(Cc2ccccc2)C(C)C)cc1 to Cc1c(C(C)C)c(=O)n(-c2ccc(S(=O)(=O)NCc3ccccc3)cc2)n1C, the IC50 falls from 8.29 µM to 3.84 µM (2.2-fold). The second is the more potent here.

Going from O=C(NC(c1cccnc1)C(F)(F)F)c1cc(COc2ccc3c(c2)CCCC3)on1 (stereo not drawn) to CCc1ccc(CN(C)C(=O)c2cc(COc3cccc4cnccc34)on2)cc1, the IC50 falls from 10.6 µM to 5.85 µM (1.8-fold).

Going from CCc1ccccc1NC(=S)N=Nc1c(O)n(C)c2ccc(S(=O)(=O)N3CCOCC3)cc12 to O=S(=O)(c1ccc2c(c1)nc(COc1ccc(Cl)cc1)n2CC1CCCO1)N1CCOCC1 (stereo not drawn), the IC50 falls from 10.9 µM to 3.85 µM (2.8-fold).

First: CCCCN(C(C)=O)c1ccc2c(c1)C1CC2CCN1C(=O)OCc1ccccc1 (stereo not drawn)
Second: O=C(N[C@@H]1C/C=C\C[C@@H](CC(=O)N(CCO)Cc2ccccc2)C(=O)NCCOC1=O)OCC1c2ccccc2-c2ccccc21
The IC50 of the first is 2.1-fold lower: 6.13 µM for the first, 12.7 µM for the second.

Compared with CCn1cc[n+](C)c1P(c1ccccc1)c1ccccc1, CCn1c(/C=C/Nc2ccccc2)[n+](CC)c2ccc(Cl)cc21 is 2.1-fold higher in IC50: 8.57 µM for the first, 18.1 µM for the second.

Going from CCNc1nc(CN2CCCCC2)nc2scc(-c3ccccc3)c12 to COc1ccc(OC)c(Cc2cnc3nc(N)nc(N)c3c2C)c1, the IC50 falls from 5.95 µM to 2.8 µM (2.1-fold). The second is the more potent here.

With CCCCCCCOc1ccc(OC(=O)c2ccncc2)cc1 the IC50 was 0.954 µM.

O=C(C[C@H]1C/C=C\C[C@H](NC(=O)OCC2c3ccccc3-c3ccccc32)C(=O)OC[C@@H]2CCCN2C1=O)N[C@H](CO)Cc1ccccc1 was tested, and the IC50 was > 20 µM (inactive).
In the case of CC(C)C(=O)N1CCN(c2ccccc2NC(=O)COc2ccccc2)CC1, the IC50 is reported as > 20 µM (inactive).
With C/C(=N\Nc1ccc(Cl)nn1)c1ccccc1O the IC50 was > 20 µM (inactive).
Cn1c(=O)c2c(nc(NCCOc3ccc(C(C)(C)C)cc3)n2C)n(C)c1=O was tested, and the IC50 was > 20 µM (inactive).
